Results published in patent US9057727B2, “Screening methods using G-protein coupled receptors and related compositions” (The General Hospital Corporation, priority 2007, dated 2015).
Ends that are not written are not given here. Peptide text beside a SMILES is read from it.

How the values were obtained:
MC3T3-E1 cells [1] = experiment: cAMP screen of EALK-PTHrP(1-31)/(1-34) variants (% parent); format: cell-based
From the text: FIGS. 32A and 32B are graphs showing the effects of amino acid substitutions in the 29-31 region of EALK-PTHrP(1-31) (SEQ ID NO:94) (FIG. 32A) and the 29-33 region of EALK-PTHrP(1-34) (SEQ ID NO:112) (FIG. 32B) on induction of cAMP activity in MC3T3-E1 cells. Substitutions at position 29 for EALK-PTHrP(1-31) were G^29 to S^29 (SEQ ID NO:95-96), L^29 (SEQ ID NO:176), and N^29 to K^29 (SEQ ID NO:97-101). Substitutions at position 30 for EALK-PTHrP(1-31) were G^30 to D^30 (SEQ ID NO:102-106), W^30 (SEQ ID NO:177), and K^30 (SEQ ID NO:107). […] Substitutions for EALK-PTHrP(1-34) A^30 to A^33 (SEQ ID NO:113-116) and EALK-PTHrP(1-28)/PTH(29-34) (SEQ ID NO:117).
To optimize the activity of the EALK-PTHrP peptides, we generated EALK-PTHrP([…]) and PTHrP(1-34) variants with substitutions in the 29-33 region. In the 1-30 scaffold, Gly, Ser, Leu, Asn, Gln, Trp, Glu, and Lys were substituted at position 29; Gly, Ser, Leu, Asn, Asp, Trp, and Lys were substituted at position 30; and Ser, Leu, Asn, Val, Trp, Glu, and Lys were substituted at position 31. […] A predicted advantage of these longer-length peptides, relative to the PTHrP(1-30) scaffold, is that they will have longer a longer half-life in circulation due to slower clearance. The C-terminal substitutions were thus designed to provide the added chain length, but to avoid increasing R^0 binding affinity, which occurs when the native PTHrP(29-34) region (SEQ ID NO:186) is installed. These peptides were tested for cAMP activity in MC3T3-E1 cells.

MC3T3-E1 cells [2] = experiment: cAMP in MC3T3-E1 cells, dose-response; format: cell-based; conditions: Table 3; read-out: dose-response cAMP in MC3T3-E1 (EC50)
Experimental: In the 1-30 scaffold, Gly, Ser, Leu, Asn, Gln, Trp, Glu, and Lys were substituted at position 29; Gly, Ser, Leu, Asn, Asp, Trp, and Lys were substituted at position 30; and Ser, Leu, Asn, Val, Trp, Glu, and Lys were substituted at position 31. […] These peptides were tested for cAMP activity in MC3T3-E1 cells.

SaOS cells = experiment: cAMP production in SaOS cells, dose-response; format: cell-based; conditions: Table 3; read-out: dose-response cAMP in SaOS (EC50)
[3] = test system: LLCPK1-B64 cells or SaOS-2 cells; experiment: cAMP screen of substituted PTHrP(1-28) analogs (% parent); format: cell-based; conditions: parent PTHrP(1-28)NH
Procedure, shortened: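 LLCPK1-B64 or SaOS-2 cells exposed to peptide analogs at 3×10^−9M with IBMX for 30 minutes at room temperature, then cAMP measured. Each analog's response expressed as percentage of that for parent PTHrP(1-28).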

[4] = biological target: T1, human PTHR, G protein-coupled conformation (RG) (Homo sapiens, UniProt Q03431); experiment: Competition binding to RG conformation of hPTHR (COS-7 membranes, GαsND, 125I-[Aib1,3,M]PTH(1-15) tracer)
T1 construct: expressed in transfected cells; host or cells: COS-7, transient (Fugene-6); membranes
T1 sequence (Q03431 27-593): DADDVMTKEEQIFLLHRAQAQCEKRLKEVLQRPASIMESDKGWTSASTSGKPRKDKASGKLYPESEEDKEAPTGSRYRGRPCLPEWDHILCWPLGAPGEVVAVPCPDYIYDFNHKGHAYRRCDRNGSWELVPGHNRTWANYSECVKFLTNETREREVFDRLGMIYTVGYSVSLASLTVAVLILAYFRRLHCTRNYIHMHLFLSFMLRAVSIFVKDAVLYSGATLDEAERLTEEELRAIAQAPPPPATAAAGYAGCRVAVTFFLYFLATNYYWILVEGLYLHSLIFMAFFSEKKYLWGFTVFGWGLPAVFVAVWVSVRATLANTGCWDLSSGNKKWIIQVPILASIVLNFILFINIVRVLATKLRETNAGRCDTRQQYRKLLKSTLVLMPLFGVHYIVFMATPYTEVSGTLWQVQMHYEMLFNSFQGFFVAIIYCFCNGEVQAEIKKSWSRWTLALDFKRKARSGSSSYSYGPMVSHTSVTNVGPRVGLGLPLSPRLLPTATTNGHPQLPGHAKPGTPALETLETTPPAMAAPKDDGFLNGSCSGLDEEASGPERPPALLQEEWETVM

[5] = biological target: T2, human PTHR, G protein-uncoupled conformation (R^0) (Homo sapiens, UniProt Q03431); experiment: Competition binding to R0 conformation of hPTHR (COS-7 membranes, GTPγS, 125I-PTH(1-34) tracer); conditions: parent PTHrP(1-28)NH
T2 construct: expressed in transfected cells; host or cells: COS-7, transient (Fugene-6)
T2 sequence (Q03431 27-593): T1 sequence (Q03431 27-593)
Procedure, shortened: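 Bound versus free radioligand was separated by vacuum filtration after 90 min incubation of COS-7 hPTHR membranes (20-100 μg/mL) with tracer and competing peptides. Non-specific binding came from a saturating unlabeled analog.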

[6] = parent E18,A22,L25,K26-PTHrP(1-31)OH
[7] = parent E18,A22,L25,K26-PTHrP(1-34)OH

Row | Compound | screen cAMP (% parent) (MC3T3-E1 cells [1]; [6]) | EC50 (MC3T3-E1 cells [2]) | also measured
1 | AVSEHQLLHDKGKSIQDERRRAFLLKLIKEI [E18, A22, L25, K26, K29-PTHrP(1-31)OH, E18,A22,L25,K26,K29-PTHrP(1-31)] | 227 % parent | 0.28 nM | –
2 | CC[C@H](C)[C@H](NC(=O)[C@H](CC(C)C)NC(=O)[C@H](CCCCN)NC(=O)[C@H](CC(C)C)NC(=O)[C@H](CC(C)C)NC(=O)[C@H](Cc1ccccc1)NC(=O)[C@H](CO)NC(=O)[C@H](CCCNC(=N)N)NC(=O)[C@H](CCCNC(=N)N)NC(=O)[C@H](CCCNC(=N)N)NC(=O)[C@H](C)NC(=O)[C@H](CC(=O)O)NC(=O)[C@H](CCC(N)=O)NC(=O)[C@@H](NC(=O)[C@H](CO)NC(=O)[C@H](CCCCN)NC(=O)CNC(=O)[C@H](CCCCN)NC(=O)[C@H](CC(=O)O)NC(=O)[C@H](Cc1c[nH]cn1)NC(=O)[C@H](CC(C)C)NC(=O)[C@H](CC(C)C)NC(=O)[C@H](CCC(N)=O)NC(=O)[C@H](Cc1c[nH]cn1)NC(=O)[C@H](CCC(=O)O)NC(=O)[C@H](CO)NC(=O)[C@@H](NC(=O)[C@H](C)N)C(C)C)[C@@H](C)CC)C(N)=O [A18, S22, L25, K26-PTHrP(1-28)NH, A18,S22,L25,K26-PTHrP(1-28)] (H-AVSEHQLLHDKGKSIQDARRRSFLLKLI-NH2; N-terminus assumed) | – | – | EC50 (SaOS cells): 0.009 nM; screen cAMP (% parent) [3]: 367 % parent; IC50 ([4]; Table 3, read-out: dose-response human PIR RG (IC50 nM)): 0.1 nM
3 | AVSEHQLLHDKGKSIQDERRRAFLLKLIQDVHNF [E18,A22,L25,K26,Q29,D30,V31,N33,F34-PTHrP(1-34)] | – | 0.56 nM | screen cAMP (% parent) (MC3T3-E1 cells [1]; [7]): 204 % parent
4 | AVSEHQLLHDKGKSIQDERRRAFLLKLIAAIHTA [E18, A22, L25, K26, A30-PTHrP(1-34)OH, E18,A22,L25,K26,A30-PTHrP(1-34)] | – | 0.14 nM | screen cAMP (% parent) (MC3T3-E1 cells [1]; [7]): 237 % parent
5 | AVSEHQLLHDKGKSIQDARRRAFLKKLI [A18, 22, K25, 26-PTHrP(1-28)NH, A18,22,K25,26-PTHrP(1-28)] | – | – | EC50 (SaOS cells): 0.012 nM; screen cAMP (% parent) [3]: 349 % parent
6 | AVSEHQLLHDKGKSIQDERRRAFLLKLIAEIHTA [E18, A22, L25, K26-PTHrP(1-34)OH, E18,A22,L25,K26-PTHrP(1-34)] | – | 0.45 nM | screen cAMP (% parent) (MC3T3-E1 cells [1]; [7]): 100 % parent
7 | AVSEHQLLHDKGKSIQDERRRAFLLKLIASI [E18, A22, L25, K26, S30-PTHrP(1-31)OH, E18,A22,L25,K26,S30-PTHrP(1-31)] | 331 % parent | 0.12 nM | –
8 | AVSEHQLLHDKGKSIQDERRRAFLLKLISEI [E18, A22, L25, K26, S29-PTHrP(1-31)OH, E18,A22,L25,K26,S29-PTHrP(1-31)] | 209 % parent | 0.41 nM | –
9 | CC[C@H](C)[C@H](NC(=O)[C@H](CC(C)C)NC(=O)[C@H](CCCCN)NC(=O)[C@H](CC(C)C)NC(=O)[C@H](CC(C)C)NC(=O)[C@H](Cc1ccccc1)NC(=O)[C@H](CO)NC(=O)[C@H](CCCNC(=N)N)NC(=O)[C@H](CCCNC(=N)N)NC(=O)[C@H](CCCNC(=N)N)NC(=O)[C@H](CCC(=O)O)NC(=O)[C@H](CC(=O)O)NC(=O)[C@H](CCC(N)=O)NC(=O)[C@@H](NC(=O)[C@H](CO)NC(=O)[C@H](CCCCN)NC(=O)CNC(=O)[C@H](CCCCN)NC(=O)[C@H](CC(=O)O)NC(=O)[C@H](Cc1c[nH]cn1)NC(=O)[C@H](CC(C)C)NC(=O)[C@H](CC(C)C)NC(=O)[C@H](CCC(N)=O)NC(=O)[C@H](Cc1c[nH]cn1)NC(=O)[C@H](CCC(=O)O)NC(=O)[C@H](CO)NC(=O)[C@@H](NC(=O)[C@H](C)N)C(C)C)[C@@H](C)CC)C(N)=O [E18, S22, L25, K26-PTHrP(1-28)NH, E18,S22,L25,K26-PTHrP(1-28)] (H-AVSEHQLLHDKGKSIQDERRRSFLLKLI-NH2; N-terminus assumed) | – | – | EC50 (SaOS cells): 0.055 nM; screen cAMP (% parent) [3]: 337 % parent
10 | AVSEHQLLHDKGKSIQDERRRAFLLKLIQEI [E18, A22, L25, K26, Q29-PTHrP(1-31)OH, E18,A22,L25,K26,Q29-PTHrP(1-31)] | 226 % parent | 0.59 nM | –
11 | AVSEHQLLHDKGKSIQDERRRAFLLKLIAKI [E18, A22, L25, K26, K30-PTHrP(1-31)OH, E18,A22,L25,K26,K30-PTHrP(1-31)] | 245 % parent | 0.2 nM | –
12 | AVSEHQLLHDKGKSIQDERRRAFLLKLIADI [E18, A22, L25, K26, D30-PTHrP(1-31)OH, E18,A22,L25,K26,D30-PTHrP(1-31)] | 251 % parent | 0.32 nM | –
13 | AVSEHQLLHDKGKSIQDERRRAFLLKLIAEAHTA [E18, A22, L25, K26, A31-PTHrP(1-34)OH, E18,A22,L25,K26,A31-PTHrP(1-34)] | – | 0.15 nM | screen cAMP (% parent) (MC3T3-E1 cells [1]; [7]): 249 % parent
14 | AVSEHQLLHDKGKSIQDARRRSFLKKLI [A18, S22, K25, 26-PTHrP(1-28)NH, A18,S22,K25,26-PTHrP(1-28)] | – | – | EC50 (SaOS cells): 0.015 nM; screen cAMP (% parent) [3]: 316 % parent
15 | AVSEHQLLHDKGKSIQDERRRAFLLKLIAEI [E18, A22, L25, K26-PTHrP(1-31)OH, E18,A22,L25,K26-PTHrP(1-31)] | 100 % parent | 0.78 nM | –
16 | E18,A22,L25,K26,N29-PTHrP(1-31) (AVSEHQLLHDKGKSIQDERRRAFLLKLINEI-OH) [E18, A22, L25, K26, M29-PTHrP(1-31)OH] | 210 % parent | – | –
17 | E18,A22,L25,K26,V31-PTHrP(1-31) (AVSEHQLLHDKGKSIQDERRRAFLLKLIAEV-OH) [E18, A22, L25, K26, V31-PTHrP(1-31)OH] | 181 % parent | – | –
18 | AVSEHQLLHDKGKSIQDARRRSFLHKLI [A18, S22, K26-PTHrP(1-28)NH, A18,S22,K26-PTHrP(1-28)] | – | – | EC50 (SaOS cells): 0.038 nM; screen human PIR R0 (% parent) [5]: 155 % parent; screen cAMP (% parent) [3]: 372 % parent; screen human PIR RG (% parent) ([4]; parent PTHrP(1-28)NH): 175 % parent
19 | E18,A22,L25,K26,G29-PTHrP(1-31) (AVSEHQLLHDKGKSIQDERRRAFLLKLIGEI-OH) [E18, A22, L25, K26, G29-PTHrP(1-31)OH] | 206 % parent | – | –
20 | AVSEHQLLHDKGKSIQDERRRAFLLKLIAEL [E18, A22, L25, K26, L31-PTHrP(1-31)OH, E18,A22,L25,K26,L31-PTHrP(1-31)] | 198 % parent | 0.25 nM | –
21 | AVSEHQLLHDKGKSIQDERRRAFLKKLI [E18, A22, K25, 26-PTHrP(1-28)NH, E18,A22,K25,26-PTHrP(1-28)] | – | – | EC50 (SaOS cells): 0.054 nM; screen cAMP (% parent) [3]: 323 % parent
